According to patent US8598383B2, “Pharmaceutical composition for treating or preventing degenerative and inflammatory diseases” (Neurotech Pharmaceuticals Co., Ltd., priority 2006, dated 2013):

How the values were obtained:
[1] = system: TNF-α production in BV2 cell line; assay: Suppressing effect on production of cytokine (ELISA), TNF-α; format: cell-based; settings: LPS + 100 uM of sample, 24 hours; for TNF-α % Inhibition: level in medium, 100 µM; for inhibition at 100 µM: Mus musculus, BV-2, level in medium
Description: (§1) Effects of the 2-hydroxybenzoic acid derivatives on production of cytokine in BV2 cell line were evaluated. 24-well plate was inoculated with 1×10^6 cells of BV2 cell line, and treated with both LPS, inflammation-inducing material, and 100 uM of sample (the 2-hydroxybenzoic acid derivative or comparative drug), together. After 24 hours of incubation, culture medium was collected. The levels of cytokines, TNF-α and IL-6, in the medium were evaluated by ELISA method.

[2] = system: IL-6 production in BV2 cell line; assay: Suppressing effect on production of cytokine (ELISA), IL-6; format: cell-based; settings: LPS + 100 uM of sample, 24 hours; for inhibition at 100 µM: Mus musculus, BV-2, level in medium; for IL-6 % Inhibition: level in medium
Description: as §1

[3] = system: MPO (myeloperoxidase); settings: cited from earlier work; for activity of MPO: in vivo
[4] = system: BV2 microglia cell line; assay: Suppressing effect on production of NO (LPS, Griess reagent); format: cell-based; settings: Mus musculus, BV-2, LPS-treated BV2 microglia, 24 hours incubation
Description: Inhibiting effect of the 2-hydroxybenzoic acid derivative according to the present invention on NO, inflammatory factor intervening inflammation reaction was evaluated. BV2 microglia cell line was treated with lipopolysaccharide (LPS), a inflammation-inducing material of bacteria toxin, with inclusion of 10 uM, 30 uM or 100 uM of the present compound. After 24 hours of incubation, 50 ul of culture medium was collected in 96-well plate. Then, 50 ul of Griess reagent was added and incubated for 10 minutes at room temperature. The absorbance was evaluated by ELISA reader at 540 nm.

[5] = system: collagen-induced arthritis; assay: Collagen-induced arthritis model (arthritic index); format: in vivo, mouse
Description: FIG. 15 is results showing efficacy through arthritis animal model induced by collagen. 25 mg/kg of compound 2, 3 or 18, or methotrexate (control, MTX, 1 mg/kg/week) was intraperitoneally injected after administration of collagen.
FIG. 16 is results showing efficacy of compounds 6 and 11 through arthritis animal model induced by collagen. Collagen was intradermally injected two times with 2 week-interval. One week later, compound 6, compound 11 and methotrexate (control) were intraperitoneally injected. Then, the animals were observed everyday for 2-3 weeks, and results was evaluated by arthritis index.
To evaluate the efficacy of the 2-hydroxybenzoic acid derivative, collagen-induced arthritis model (rheumarthritis animal model) was used. Bovine type II collagen was mixed with complete Freund's adjuvant to make an emulsion, and the emulsion was intradermally injected into the origin site of 8˜10 week-old DBA/1LacJ mouse tail. Intradermal boosting was performed by the same method 2 weeks later. 25 mg/kg/day of compounds 2, 3 and 18, 1 mg/kg/week of methotrexate (comparative example) or 10% vehicle (control) were intraperitoneally injected one week after the second intradermal injection of collagen (FIG. 15). Pictures of foot edema of normal rat (sham), collagen-administered rat (collagen) and compound 18-administered rat (compound 18, 25 mg/kg/day injection) were shown in FIG. 14.
In addition, 50 mg/kg/day of compounds 6 and 11, and 5 mg/kg/2 days of methotrexate (comparative example) were intraperitoneally injected. Phosphate buffered saline was injected as control (FIG. 16). For 2˜3 weeks, the degree of arthritis was observed everyday, and the result was evaluated according to the below arthritic index using edema.
4 paws were evaluated as from 0 to 4 point, Total points: 16

[6] = Single-dose toxicity test; format: in vivo
Description: FIG. 32 is results of single dose toxicity testing of some 2-hydroxybenzoic acid derivatives according to the present invention.
Single-dose toxicities of the 2-hydroxybenzoic acid derivatives were evaluated.

[7] = system: TNF-alpha gene expression in BV2 cell line; assay: Suppressing effect on gene expression (RT-PCR), TNF-alpha; format: cell-based; settings: gene expression vs LPS control, BV2, 24 hours; for inhibition at 100 µM: Mus musculus, BV-2, 24 h
Description: (§2) Effects of the 2-hydroxybenzoic acid derivatives on iNOS gene expression in BV2 cell line were evaluated. 100 mm dish was inoculated with 1×10^6 cells of BV2 cell line, and treated with both LPS, inflammation-inducing material, and 1˜100 uM of the 2-hydroxybenzoic acid derivative of the present invention, together, in regular concentration interval. After 24 hours of incubation, RNA was extracted. Extracted RNA was used in reverse transcription and polymerase chain reaction, and expression patterns of TNF-alpha, IL-1beta and iNOS were compared.

[8] = system: IL-1beta gene expression in BV2 cell line; assay: Suppressing effect on gene expression (RT-PCR), IL-1beta; format: cell-based; settings: Mus musculus, BV-2, 24 h, gene expression vs LPS control, BV2, 24 hours
Description: as §2

[9] = system: iNOS gene expression in BV2 cell line; assay: Suppressing effect on gene expression (RT-PCR), iNOS; format: cell-based; settings: Mus musculus, BV-2, 24 h, gene expression vs LPS control, BV2, 24 hours
Description: as §2

[10] = system: DSS-induced colitis; assay: 5% dextran sulfate sodium (DSS) inflammatory intestinal disease model; format: in vivo, mouse; settings: vs DSS only; compound 18 25 mg/kg oral
Description: FIG. 17 is results showing efficacy through 5% dextran sulfate sodium (DSS) model, inflammatory intestinal disease animal model. After treatment of DSS, 10, 25 or 50 mg/kg of compound 18 suspended in 10% vehicle was orally administered. Sham means colon of normal mouse, DSS means colon mouse treated with 5% DSS. The others are pictures of colon of mice administered with compound 18 at indicated dose.
FIG. 20 is an efficacy test result of compound 18 using DSS. After treatment of DSS, compound 18 (25 mg/kg) suspended in 10% vehicle was orally administered. After that, bloody excrement by colon injury, diarrhea and the degree of dirtiness were evaluated as feces score.
5% dextran sulfate sodium (DSS) model was used as inflammatory intestinal disease animal model. 5% DSS mixed with water was orally administered. 5% DSS model causes damage to epithelial cell, and ulcer in left colon and the decrease of colon length are mainly observed in the model. This model is simple and reproductive, and can regulate the degree of inflammation according to dose. Therefore, this model is often used for evaluating drug candidates.
DSS is continuously administered in water bottle. The 2-hydroxybenzoic acid derivative was suspended in 10% vehicle, and orally administered.

Q: What does the source list for `CC(=O)Oc1ccccc1C(=O)O` [Aspirin, acetylsalicylic acid, reference compound]?
A: TNF-α % Inhibition [1]: No effect; TNF-α % Inhibition ([1]; listed as aspirin): did not showing reducing effect; inhibition at 100 µM [2]: 22.2%; IL-6 % Inhibition [2]: little reduced

Q: What does the source list for `CC(C)Cc1ccc(C(C)C(=O)O)cc1` (stereo not shown) [Ibuprofen, reference compound]?
A: TNF-α % Inhibition [1]: No effect; TNF-α % Inhibition ([1]; listed as ibuprofen): did not showing reducing effect; IL-6 % Inhibition ([2]; 100 µM): No effect; IL-6 % Inhibition ([2]; listed as ibuprofen, 100 µM): little reduced

Q: For `CC(c1cc2ccccc2s1)N(O)C(N)=O` (stereo not shown) [Zileuton], which “activity of MPO” value [3] is on record?
A: decreased the activity of MPO

Q: With `O=C(O)c1cc(NCCc2ccccc2)ccc1O` [compound 1, 2-hydroxy-5-phenethylamino-benzoic acid] as the molecule, how does the IC50 [4] read?
A: 183 µM

Q: With `O=C(O)c1cc(NCCc2cccc(C(F)(F)F)c2)ccc1O` [compound 3, 2-hydroxy-5-[2-(3-trifluoromethyl-phenyl)-ethylamino]-benzoic acid] as the molecule, how does the inhibition at 100 µM [1] read?
A: 31.9%

Q: What about the arthritic index ([5]; 25 mg/kg/day intraperitoneal) of the same molecule?
A: apparent reducing effect

Q: And the inhibition at 100 µM [2]?
A: 33.1%

Q: And the “single-dose toxicity, finding in words” value ([6]; single dose)?
A: high toxicity or dose-independent toxicity

Q: With `O=C(O)c1cc(NCCc2cc(C(F)(F)F)cc(C(F)(F)F)c2)ccc1O` [compound 4, 5-[2-(3,5-bis-trifluoromethyl-phenyl)-ethylamino]-2-hydroxy-benzoic acid] as the molecule, how does the inhibition at 100 µM [1] read?
A: 18.7%

Q: What about the “single-dose toxicity, finding in words” value ([6]; mouse, in vivo) of the same molecule?
A: caused sudden death of mouse at 3 g/kg

Q: And the IC50 [4]?
A: 6.25 µM

Q: Which results are given for `O=C(O)c1cc(NCCc2ccccc2[N+](=O)[O-])ccc1O` [compound 5, 2-hydroxy-5-[2-(2-nitro-phenyl)-ethylamino]-benzoic acid]?
A: inhibition at 100 µM [7]: 38.7%; inhibition at 100 µM [8]: 67.7%

Q: Which arthritic index ([5]; 50 mg/kg/day intraperitoneal) does the source give for `O=C(O)c1cc(NCCc2ccc(Cl)cc2)ccc1O` [compound 6, 5-[2-(4-chloro-phenyl)-ethylamino]-2-hydroxy-benzoic acid] here?
A: apparent reducing effect

Q: Which inhibition at 100 µM [7] does the source give for `O=C(O)c1cc(NCCc2ccc(Cl)c(Cl)c2)ccc1O` [compound 8, 5-[2-(3,4-dichloro-phenyl)-ethylamino]-2-hydroxy-benzoic acid] here?
A: 77%

Q: What about the “% Inhibition (in 100 uM) TNF-alpha” value [7] of the same molecule?
A: 77.1%

Q: And the inhibition at 100 µM [8]?
A: > 50%

Q: Which results are given for `O=C(O)c1cc(NCCc2ccc(F)cc2C(F)(F)F)ccc1O` [compound 9, 5-[2-(4-fluoro-2-trifluoromethyl-phenyl)-ethylamino]-2-hydroxy-benzoic acid]?
A: inhibition at 100 µM [9]: 17.8%; inhibition at 100 µM [7]: 61.7%; % Inhibition (in 100 uM) TNF-alpha [7]: 61.7%; IC50 [4]: 1.79 µM

Q: With `O=C(O)c1cc(NCCc2ccc(C(F)(F)F)cc2F)ccc1O` [compound 10, 5-[2-(2-fluoro-4-trifluoromethyl-phenyl)-ethylamino]-2-hydroxy-benzoic acid] as the molecule, how does the IC50 [4] read?
A: 20.7 µM

Q: Which arthritic index ([5]; 50 mg/kg/day intraperitoneal) does the source give for `COc1ccc(CCNc2ccc(O)c(C(=O)O)c2)cc1` [compound 11, 2-hydroxy-5-[2-(4-methoxy-phenyl)-ethylamino]-benzoic acid] here?
A: apparent reducing effect

Q: And the IC50 [4]?
A: 132 µM

Q: Which results are given for `Cc1ccccc1CCNc1ccc(O)c(C(=O)O)c1` [compound 12, 2-hydroxy-5-(2-o-tolyl-ethylamino)-benzoic acid]?
A: inhibition at 100 µM [9]: 43.7%; inhibition at 100 µM [8]: 41.8%

Q: Which inhibition at 100 µM [9] does the source give for `O=C(O)c1cc(NCCCc2ccccc2)ccc1O` [compound 13, 2-hydroxy-5-(3-phenyl-propylamino)-benzoic acid] here?
A: 15.5%

Q: What about the inhibition at 100 µM [7] of the same molecule?
A: 43%

Q: For `O=C(O)c1cc(NCCCc2ccc(C(F)(F)F)cc2)ccc1O` [compound 14, 2-hydroxy-5-[3-(4-trifluoromethyl-phenyl)-propylamino]-benzoic acid], which inhibition at 100 µM [1] is on record?
A: 62.6%

Q: And the inhibition at 100 µM [9]?
A: 44.3%

Q: What about the inhibition at 100 µM [7] of the same molecule?
A: 38.9%

Q: What about the “single-dose toxicity, finding in words” value ([6]; single dose) of the same molecule?
A: high toxicity or dose-independent toxicity

Q: With `O=C(O)c1cc(NCCCc2ccc(F)cc2)ccc1O` [compound 15, 5-[3-(4-fluoro-phenyl)-propylamino]-2-hydroxy-benzoic acid] as the molecule, how does the inhibition at 100 µM [7] read?
A: 37.4%

Q: What about the inhibition at 100 µM [8] of the same molecule?
A: 35.1%

Q: Which inhibition at 100 µM [7] does the source give for `Cc1ccc(CCCNc2ccc(O)c(C(=O)O)c2)cc1` [compound 17, 2-hydroxy-5-(3-p-tolyl-propylamino)-benzoic acid] here?
A: 20.8%

Q: Which LD50 ([6]; mouse, in vivo, single dose) does the source give for `O=C(O)c1cc(NCCc2ccccc2Cl)ccc1O` [compound 19, 5-[2-(2-chloro-phenyl)-ethylamino]-2-hydroxy-benzoic acid] here?
A: 500 to 1000 mg/kg

Q: What does the source list for `CS(=O)(=O)Nc1ccc([N+](=O)[O-])cc1Oc1ccccc1` [nimesulide]?
A: protective effect in intestinal damage animal models ([3]; acetic acid-induced IBD and LTB4-induced IBD): showed protective effect; activity of MPO [3]: excessively suppressed the activity of MPO

Q: Which “activity of MPO” value [3] does the source give for `O=C(O)c1cc(/N=N/c2ccc(S(=O)(=O)Nc3ccccn3)cc2)ccc1O` [sulfasalazine, reference compound] here?
A: decreased the activity of MPO

Q: What about the “feces score (bloody excrement, diarrhea, dirtiness)” value [10] of the same molecule?
A: significantly decreased feces score
